The text below walks through data of BindingDB's records for patent US20230416245 (Biointervene, 2023).

The Ki is a measure of affinity in units of concentration, obtained from inhibition or displacement. Low values mean a stronger hold on the target, high ones a looser hold on the target.

This assay has as its target T1, Adenosine receptor A3 (Homo sapiens, UniProt P0DMS8).
T1 sequence (P0DMS8 whole entry): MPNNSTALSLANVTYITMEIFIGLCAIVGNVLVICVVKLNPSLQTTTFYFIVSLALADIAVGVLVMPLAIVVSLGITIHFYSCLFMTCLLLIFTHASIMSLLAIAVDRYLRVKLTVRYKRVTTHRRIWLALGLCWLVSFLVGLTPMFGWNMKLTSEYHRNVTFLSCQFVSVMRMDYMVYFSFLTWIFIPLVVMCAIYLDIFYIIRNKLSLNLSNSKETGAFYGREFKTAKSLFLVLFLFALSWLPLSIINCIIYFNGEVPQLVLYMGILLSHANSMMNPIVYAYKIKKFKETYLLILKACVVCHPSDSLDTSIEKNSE
Description: Adenosine Receptor Binding Assay. On the procedure: Radioligand-binding assays were performed using the adenosine A3 receptor agonist [125I]-AB-MECA and the A1 receptor agonist [3H]CCPA. Binding assays were conducted in a total volume of 100 μL containing a 50 mM Tris, pH 7.4 buffer with or without 10 mM MgCl2, 20 μg membranes and either 0.15 nM [125I]-AB-MECA (for the A3 receptor) or 1 nM [3H]CCPA (for the A1 receptor). Assays were conducted at room temperature for 60 min (A1 receptor) or 120 min (A3 receptor) and terminated by the addition of 2 ml of ice-cold wash buffer (50 mM Tris, pH 7.4 with or without 10 mM MgCl2) and rapid filtration over 0.03% polyethylenimine-treated Whatman GF/C filters using a Brandel cell harvester (Semat International Ltd., St Albans, UK). Filters were then washed three times with 2 ml of ice-cold buffer. The filter-bound radioactivity were counted using a Compugamma counter (LKB Wallac, Turku, Finland). Competition experiments were performed to investigate the ability of reference compounds and embodiments of the invention to inhibit [125I]-AB-MECA binding. Non-specific binding were determined using the respective compound at its highest concentration

For the compound `CCNc1cc(Cl)nc2c1ncn2[C@H]1[C@H](O)[C@H](O)[C@]2(C(=O)NC)C[C@H]12` [US20230416245, Compound 59], the affinity corresponds to a Ki of 0.23 nM.
